Laboratory results reported in article PMC5766609 (Scientific Reports, 2018).
Where two headings read alike, the source gives them in different places. Starred links: 1 amine or outer side, 2 acyl side, 3 side chain; linkers in the order of their positions; H or OH if unused. Non-standard residues stand in square brackets, D forms with d. Residues, ends and D or L forms follow the SMILES beside them. Groups on a side chain read outwards from the residue. *: point of attachment. γGlu = O=C(O)[C@H](CCC(=O)[*:2])N[*:1]; Palmitoyl = CCCCCCCCCCCCCCCC(=O)*

What was measured:
[1] = target: T1, human GLP-1 receptor (GLP1R) (Homo sapiens, UniProt P43220); assay: cAMP assay on CHO-JumpIn cells stably transfected with human GLP-1 receptor (HitHunter cAMP); type: cell-based; conditions: value ± spread;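 also: peptides tested as 4-fold serial dilution series, cells exposed 1 hr at RT in the dark, cAMP quantified against a cAMP standard calibration curve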
T1 construct: expressed in transfected cells; host or cells: CHO-JumpIn cells, stably transfected
Method: (§1) Briefly, a 2 μM solution of peptide was prepared, and 4-fold serial dilutions were made. 150 nL of the above titration was then dispensed into an Optiplate384 using an Echo555. […] The HitHunter® cAMP Assay kit calibration curve was prepared following the manufacturer’s protocol (DiscoveRx-90-0075L). 30,000 cells/well were added to the peptides, spun briefly at 500 rpm for 15 s and incubated at RT in the dark for 1 hr. The assay was developed as per the manufacturer’s instructions. cAMP accumulation due to GLP1R agonism or GCGR agonism was measured using an EnVision platereader (PerkinElmer), and calibrated using the cAMP standard curve. Data were analyzed using Assay Data Analyzer (ADA).

[2] = target: T2, human glucagon receptor (GCGR) (Homo sapiens, UniProt P47871); assay: cAMP assay on CHO-JumpIn cells stably transfected with human glucagon receptor (HitHunter cAMP); type: cell-based; conditions: for EC50: cAMP accumulation, CHO-JumpIn cells with human GCGR, value ± spread;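 as to all read-outs here: peptides tested as 4-fold serial dilutions starting from a 2 µM solution, cells exposed 1 hr at RT in darkness, cAMP quantified against a cAMP standard curve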
T2 construct: expressed in transfected cells; host or cells: CHO-JumpIn cells, stably transfected
Method: as §1

[3] = Table 2, cAMP accumulation, buffer PBS, 0.1% BSA, 100 μM RO 20-1724, 20% serum, 1 hr at RT, read-out: EC50 GLP1R
[4] = Table 2, buffer PBS, 0.1% BSA, 100 μM RO 20-1724, 20% serum, 1 hr at RT, read-out: EC50 GCGR

T2 sequence (P47871 26-477): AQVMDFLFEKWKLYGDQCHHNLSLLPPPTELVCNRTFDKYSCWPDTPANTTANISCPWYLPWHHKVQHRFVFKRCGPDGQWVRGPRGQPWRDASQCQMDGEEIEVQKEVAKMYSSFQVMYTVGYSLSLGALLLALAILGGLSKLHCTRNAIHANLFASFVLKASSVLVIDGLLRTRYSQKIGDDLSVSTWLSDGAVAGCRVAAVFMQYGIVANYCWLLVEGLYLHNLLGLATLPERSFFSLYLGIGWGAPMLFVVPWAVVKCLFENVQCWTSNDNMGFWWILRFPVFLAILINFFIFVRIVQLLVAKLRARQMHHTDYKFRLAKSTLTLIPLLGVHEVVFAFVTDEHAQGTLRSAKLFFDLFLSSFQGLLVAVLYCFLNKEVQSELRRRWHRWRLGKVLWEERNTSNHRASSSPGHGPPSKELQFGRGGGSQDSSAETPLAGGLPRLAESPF
T1 sequence (P43220 24-463): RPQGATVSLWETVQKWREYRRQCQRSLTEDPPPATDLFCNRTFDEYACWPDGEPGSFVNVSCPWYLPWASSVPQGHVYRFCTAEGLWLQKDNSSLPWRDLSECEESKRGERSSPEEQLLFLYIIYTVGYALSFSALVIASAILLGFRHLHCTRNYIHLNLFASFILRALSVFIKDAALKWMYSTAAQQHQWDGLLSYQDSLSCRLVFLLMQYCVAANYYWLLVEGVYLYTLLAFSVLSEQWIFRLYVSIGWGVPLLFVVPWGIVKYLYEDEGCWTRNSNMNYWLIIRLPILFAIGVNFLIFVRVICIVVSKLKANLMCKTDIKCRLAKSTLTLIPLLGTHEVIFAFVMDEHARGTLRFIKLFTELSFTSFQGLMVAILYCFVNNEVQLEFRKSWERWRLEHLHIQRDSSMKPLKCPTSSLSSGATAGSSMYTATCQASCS

Row | Structure (SMILES) | EC50 [1, 3] | EC50 [2, 4] | EC50 ([1]; Table 3, engineered versus parent peptides, cAMP accumulation, read-out: EC50 hGLP1) | EC50 ([2]; Table 3, engineered versus parent peptides, read-out: EC50 hGCGR) | activation of the receptors (in words) ([2]; both receptors (GCGR and GLP1R) not activated)
1 | CCCCCCCCCCCCCCCC(=O)N[C@@H](CCC(=O)N[C@@H](CCC(=O)NCCCC[C@H](NC(=O)[C@H](CC(=O)O)NC(=O)[C@H](CO)NC(=O)[C@H](CC(C)C)NC(=O)[C@H](Cc1ccccc1)NC(=O)[C@@H](NC(=O)CNC(=O)[C@H](CCC(N)=O)NC(=O)[C@@H](CO)NC(=O)[C@@H](N)Cc1c[nH]cn1)[C@@H](C)O)C(=O)N[C@@H](CO)C(=O)N[C@@H](CCCCN)C(=O)N[C@@H](CC(C)C)C(=O)N[C@@H](CC(C)C)C(=O)N[C@@H](CC(=O)O)C(=O)N[C@@H](CO)C(=O)N[C@@H](CCCNC(=N)N)C(=O)N[C@@H](CCCNC(=N)N)C(=O)N[C@@H](C)C(=O)N[C@@H](CCC(N)=O)C(=O)N[C@@H](CC(=O)O)C(=O)N[C@@H](Cc1ccccc1)C(=O)N[C@H](C(=O)N[C@@H](CCC(N)=O)C(=O)N[C@@H](Cc1c[nH]c2ccccc12)C(=O)N[C@@H](CC(C)C)C(=O)N[C@@H](CCSC)C(=O)N[C@@H](CCC(N)=O)C(=O)N[C@H](C(N)=O)[C@@H](C)O)C(C)C)C(=O)O)C(=O)O [Peptide 37] (H-H[dS]QGTFLSDK([γGlu-γGlu-Palmitoyl])SKLLDSRRAQDFVQWLMQT-NH2; N-terminus assumed) | – | – | 23.5 ± 7.6 nM | 0.037 ± 0.004 nM | –
2 | CSCC[C@H](NC(=O)[C@H](CC(C)C)NC(=O)[C@H](Cc1c[nH]c2ccccc12)NC(=O)[C@H](CCC(N)=O)NC(=O)[C@@H](NC(=O)[C@H](Cc1ccccc1)NC(=O)[C@H](CC(=O)O)NC(=O)[C@H](CCC(N)=O)NC(=O)[C@H](C)NC(=O)[C@H](CCCNC(=N)N)NC(=O)[C@H](CCCNC(=N)N)NC(=O)[C@H](CO)NC(=O)[C@H](CC(=O)O)NC(=O)[C@H](CC(C)C)NC(=O)[C@H](Cc1ccc(O)cc1)NC(=O)[C@H](Cc1ccc(O)cc1)NC(=O)[C@H](Cc1ccc(O)cc1)NC(=O)[C@H](Cc1ccc(O)cc1)NC(=O)[C@H](CC(=O)O)NC(=O)[C@H](Cc1c[nH]cn1)NC(=O)[C@H](CC(C)C)NC(=O)[C@H](Cc1ccccc1)NC(=O)[C@@H](NC(=O)CNC(=O)[C@H](CCC(N)=O)NC(=O)[C@H](CO)NC(=O)[C@@H](N)Cc1c[nH]cn1)[C@@H](C)O)C(C)C)C(=O)N[C@@H](CC(=O)O)C(=O)N[C@H](C(N)=O)[C@@H](C)O [Peptide 17] (H-HSQGTFLHDYYYYLDSRRAQDFVQWLMDT-NH2) | > 200 nM | 0.527 ± 0.315 nM | – | – | –
3 | CC[C@H](C)[C@H](NC(=O)[C@H](Cc1c[nH]c2ccccc12)NC(=O)[C@H](Cc1ccccc1)NC(=O)[C@H](CC(=O)O)NC(=O)[C@H](CCC(N)=O)NC(=O)[C@H](C)NC(=O)[C@H](CCCNC(=N)N)NC(=O)[C@H](CCCNC(=N)N)NC(=O)[C@H](CO)NC(=O)[C@H](CC(=O)O)NC(=O)[C@H](CC(C)C)NC(=O)[C@H](Cc1ccc(O)cc1)NC(=O)[C@H](CCCCN)NC(=O)[C@H](CO)NC(=O)[C@H](Cc1ccc(O)cc1)NC(=O)[C@H](CC(=O)O)NC(=O)[C@H](CO)NC(=O)[C@@H](NC(=O)[C@H](Cc1ccccc1)NC(=O)[C@@H](NC(=O)CNC(=O)[C@H](CCC(N)=O)NC(=O)[C@H](CO)NC(=O)[C@@H](N)Cc1c[nH]cn1)[C@@H](C)O)[C@@H](C)O)C(=O)N[C@@H](CC(=O)O)C(=O)N[C@@H](CC(C)C)C(=O)N[C@@H](CCSC)C(=O)N[C@@H](CC(N)=O)C(=O)N[C@H](C(N)=O)[C@@H](C)O [Peptide 25] | > 20 nM | > 20 nM | – | – | did not activate
4 | CSCC[C@H](NC(=O)[C@H](CC(C)C)NC(=O)[C@H](Cc1c[nH]c2ccccc12)NC(=O)[C@H](CCC(N)=O)NC(=O)[C@@H](NC(=O)[C@H](Cc1ccccc1)NC(=O)[C@H](CC(=O)O)NC(=O)[C@H](CCC(N)=O)NC(=O)[C@H](C)NC(=O)[C@H](CCCNC(=N)N)NC(=O)[C@H](CCCNC(=N)N)NC(=O)[C@H](CO)NC(=O)[C@H](CC(=O)O)NC(=O)[C@H](CC(C)C)NC(=O)[C@H](Cc1c[nH]c2ccccc12)NC(=O)[C@H](Cc1c[nH]cn1)NC(=O)[C@H](CO)NC(=O)[C@H](Cc1ccc(O)cc1)NC(=O)[C@H](CC(=O)O)NC(=O)[C@H](CO)NC(=O)[C@H](Cc1ccccc1)NC(=O)[C@H](Cc1ccccc1)NC(=O)[C@@H](NC(=O)CNC(=O)[C@H](CCC(N)=O)NC(=O)[C@H](CO)NC(=O)[C@@H](N)Cc1c[nH]cn1)[C@@H](C)O)C(C)C)C(=O)N[C@@H](CC(N)=O)C(=O)N[C@H](C(N)=O)[C@@H](C)O [Peptide 22] | > 200 nM | 0.029 ± 0.001 nM | – | – | –

The remaining molecules from weak to strong by EC50 [1, 3], led by results:

Row | EC50 [1, 3] | EC50 [2, 4] | EC50 ([1]; Table 3, engineered versus parent peptides, cAMP accumulation, read-out: EC50 hGLP1) | EC50 ([2]; Table 3, engineered versus parent peptides, read-out: EC50 hGCGR) | activation of the receptors (in words) ([2]; both receptors (GCGR and GLP1R) not activated) | Structure (SMILES)
5 | 14.8 ± 11.4 nM | 4.18 ± 1.13 nM | – | – | – | CSCC[C@H](NC(=O)[C@H](CC(C)C)NC(=O)[C@H](Cc1c[nH]c2ccccc12)NC(=O)[C@H](CCC(N)=O)NC(=O)[C@@H](NC(=O)[C@H](Cc1ccccc1)NC(=O)[C@H](CC(=O)O)NC(=O)[C@H](CCC(N)=O)NC(=O)[C@H](C)NC(=O)[C@H](CCCNC(=N)N)NC(=O)[C@H](CCCNC(=N)N)NC(=O)[C@H](CO)NC(=O)[C@H](CC(=O)O)NC(=O)[C@H](CC(C)C)NC(=O)[C@H](Cc1ccc(O)cc1)NC(=O)[C@H](CCCCN)NC(=O)[C@H](CO)NC(=O)[C@H](Cc1ccc(O)cc1)NC(=O)[C@H](CC(=O)O)NC(=O)[C@H](CO)NC(=O)[C@@H](NC(=O)[C@H](Cc1ccccc1)NC(=O)[C@@H](NC(=O)[C@H](Cc1ccccc1)NC(=O)[C@H](CCC(N)=O)NC(=O)CNC(=O)[C@H](CC(C)C)NC(=O)[C@H](C)NC(=O)[C@@H](N)CCCCN)[C@@H](C)O)[C@@H](C)O)C(C)C)C(=O)N[C@@H](CC(N)=O)C(=O)N[C@H](C(N)=O)[C@@H](C)O [Peptide 21] (H-KALGQFTFTSDYSKYLDSRRAQDFVQWLMNT-NH2)
6 | 0.063 ± 0.034 nM | 0.032 ± 0.013 nM | – | – | – | CC(C)C[C@H](NC(=O)[C@H](Cc1ccc(O)cc1)NC(=O)[C@H](CCCCN)NC(=O)[C@H](CO)NC(=O)[C@H](Cc1ccc(O)cc1)NC(=O)[C@H](CC(=O)O)NC(=O)[C@H](CO)NC(=O)[C@@H](NC(=O)[C@H](Cc1ccccc1)NC(=O)[C@@H](NC(=O)CNC(=O)[C@H](CCC(N)=O)NC(=O)[C@H](CO)NC(=O)[C@@H](N)Cc1c[nH]cn1)[C@@H](C)O)[C@@H](C)O)C(=O)N[C@@H](CC(=O)O)C(=O)N[C@@H](Cc1c[nH]c2ccccc12)C(=O)N[C@@H](CCCNC(=N)N)C(=O)N[C@@H](CCCNC(=N)N)C(=O)N[C@@H](C)C(=O)N[C@@H](CCC(N)=O)C(=O)N[C@@H](CC(=O)O)C(=O)N[C@@H](Cc1ccccc1)C(=O)N[C@H](C(=O)N[C@@H](CCC(N)=O)C(=O)N[C@@H](Cc1c[nH]c2ccccc12)C(=O)N[C@@H](CC(C)C)C(=O)N[C@@H](CC(C)C)C(=O)N[C@@H](CC(N)=O)C(=O)N[C@H](C(N)=O)[C@@H](C)O)C(C)C [Peptide 6]
7 | 0.039 ± 0.008 nM | 0.078 ± 0.05 nM | – | – | – | CC[C@H](C)[C@H](NC(=O)[C@H](CC(C)C)NC(=O)[C@H](Cc1c[nH]c2ccccc12)NC(=O)[C@H](CCC(N)=O)NC(=O)[C@@H](NC(=O)[C@H](Cc1ccccc1)NC(=O)[C@H](CC(=O)O)NC(=O)[C@H](CCC(N)=O)NC(=O)[C@H](C)NC(=O)[C@H](CCCNC(=N)N)NC(=O)[C@H](CCCNC(=N)N)NC(=O)[C@H](CO)NC(=O)[C@H](CC(=O)O)NC(=O)[C@H](CC(C)C)NC(=O)[C@H](Cc1ccc(O)cc1)NC(=O)[C@H](CCCCN)NC(=O)[C@H](CO)NC(=O)[C@H](Cc1ccc(O)cc1)NC(=O)[C@H](CC(=O)O)NC(=O)[C@H](CO)NC(=O)[C@@H](NC(=O)[C@H](Cc1ccccc1)NC(=O)[C@@H](NC(=O)CNC(=O)[C@H](CCC(N)=O)NC(=O)[C@H](CO)NC(=O)[C@@H](N)Cc1c[nH]cn1)[C@@H](C)O)[C@@H](C)O)C(C)C)C(=O)N[C@@H](CC(N)=O)C(=O)N[C@@H](Cc1ccc(O)cc1)C(N)=O [Peptide 13]
8 | 0.022 ± 0.001 nM | 0.014 ± 0.001 nM | – | – | – | CSCC[C@H](NC(=O)[C@H](CC(=O)O)NC(=O)[C@H](CC(C)C)NC(=O)[C@H](Cc1ccc(O)cc1)NC(=O)[C@H](CCCCN)NC(=O)[C@H](CO)NC(=O)[C@H](Cc1ccc(O)cc1)NC(=O)[C@H](CC(=O)O)NC(=O)[C@H](CO)NC(=O)[C@@H](NC(=O)[C@H](Cc1ccccc1)NC(=O)[C@@H](NC(=O)CNC(=O)[C@H](CCC(N)=O)NC(=O)[C@H](CO)NC(=O)[C@@H](N)Cc1c[nH]cn1)[C@@H](C)O)[C@@H](C)O)C(=O)N[C@@H](CCC(N)=O)C(=O)N[C@@H](CCCNC(=N)N)C(=O)N[C@@H](C)C(=O)N[C@@H](Cc1c[nH]cn1)C(=O)N[C@@H](CC(=O)O)C(=O)N[C@@H](Cc1ccccc1)C(=O)N[C@H](C(=O)N[C@@H](CCC(N)=O)C(=O)N[C@@H](Cc1c[nH]c2ccccc12)C(=O)N[C@@H](CC(C)C)C(=O)N[C@@H](CCSC)C(=O)N[C@@H](CC(N)=O)C(=O)N[C@H](C(N)=O)[C@@H](C)O)C(C)C [Peptide 32]
9 | 0.017 ± 0.001 nM | 0.038 ± 0.01 nM | – | – | – | CC[C@H](C)[C@H](NC(=O)[C@H](CC(C)C)NC(=O)[C@H](Cc1c[nH]c2ccccc12)NC(=O)[C@H](CCC(N)=O)NC(=O)[C@@H](NC(=O)[C@H](Cc1ccccc1)NC(=O)[C@H](CC(=O)O)NC(=O)[C@H](CCC(N)=O)NC(=O)[C@H](C)NC(=O)[C@H](CCCNC(=N)N)NC(=O)[C@H](CCCNC(=N)N)NC(=O)[C@H](C)NC(=O)[C@H](CC(=O)O)NC(=O)[C@H](CC(C)C)NC(=O)[C@H](Cc1ccc(O)cc1)NC(=O)[C@H](CCCCN)NC(=O)[C@H](CO)NC(=O)[C@H](Cc1ccc(O)cc1)NC(=O)[C@H](CC(=O)O)NC(=O)[C@H](CO)NC(=O)[C@@H](NC(=O)[C@H](Cc1ccccc1)NC(=O)[C@@H](NC(=O)CNC(=O)[C@H](CCC(N)=O)NC(=O)[C@H](CO)NC(=O)[C@@H](N)Cc1c[nH]cn1)[C@@H](C)O)[C@@H](C)O)C(C)C)C(=O)N[C@@H](CCCNC(=N)N)C(=O)N[C@H](C(N)=O)[C@@H](C)O [Peptide 8]
